Like-named read-outs stand apart in the source and are kept apart here.
Key:
[1] = target: DGKz (Homo sapiens (Human), UniProt Q13574); experiment: DGK ADP-Glo kinase assay (DGKz); type: biochemical; details: 5 nM DGKz, 15 uM ATP
Procedure: Luminescence was recorded using an Tecan SPARK microplate reader.

[2] = target: T1, DGKa (Homo sapiens (Human), UniProt P23743);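 note: biochemical DGK kinase assay, ADP-Glo luminescence from ADP made by phosphorylating 1,2-dioleoyl-sn-glycerol, 20 min compound preincubation then 40 min reaction at 25 °C, 1% DMSO control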
T1 sequence (P23743 whole entry): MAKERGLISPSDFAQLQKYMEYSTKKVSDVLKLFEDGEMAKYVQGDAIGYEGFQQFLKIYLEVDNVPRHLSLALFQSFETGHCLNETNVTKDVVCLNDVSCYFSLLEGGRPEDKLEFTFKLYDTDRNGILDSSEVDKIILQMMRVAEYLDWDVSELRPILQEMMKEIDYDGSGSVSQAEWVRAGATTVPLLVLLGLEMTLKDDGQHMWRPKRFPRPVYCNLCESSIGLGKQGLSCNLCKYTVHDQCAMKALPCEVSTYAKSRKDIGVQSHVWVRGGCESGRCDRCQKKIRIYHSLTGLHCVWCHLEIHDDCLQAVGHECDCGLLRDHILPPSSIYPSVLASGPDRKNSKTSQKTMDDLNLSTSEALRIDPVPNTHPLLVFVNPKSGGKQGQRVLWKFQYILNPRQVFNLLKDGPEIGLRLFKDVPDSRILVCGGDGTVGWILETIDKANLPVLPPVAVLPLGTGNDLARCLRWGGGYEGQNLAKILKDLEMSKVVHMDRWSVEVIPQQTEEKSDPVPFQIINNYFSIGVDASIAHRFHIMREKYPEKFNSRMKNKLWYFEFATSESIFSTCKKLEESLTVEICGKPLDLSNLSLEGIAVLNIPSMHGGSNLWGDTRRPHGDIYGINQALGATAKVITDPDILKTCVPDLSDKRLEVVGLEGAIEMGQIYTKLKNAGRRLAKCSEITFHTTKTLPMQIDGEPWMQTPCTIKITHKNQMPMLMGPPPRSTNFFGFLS

[3] = target: T1, DGKa; experiment: biochemical
[4] = test system: PBMC; experiment: Human PBMC IL-2 assay; type: cell-based; details: anti-CD3/CD28 stimulation overnight, IL-2 level
Procedure, shortened: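 Healthy-donor frozen PBMC were thawed, rested 4 h at 37 °C and plated at ~200,000 cells/well. Cells were preincubated 60 min at 37 °C with compound solution (10 uM to 0.6 nM, 8 points, 4-fold, as added), then stimulated overnight with anti-CD3/CD28. Supernatant IL-2 was quantified by immunoassay kit and plotted against log compound concentration.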

[5] = test system: Jurkat cells; experiment: Jurkat IL-2 assay; type: cell-based; details: Homo sapiens, anti-CD3/CD28 stimulation overnight, IL-2 level
Procedure, shortened: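 Cells in RPMI-1640 with 10% FBS received compound solution (5 uM to 2.3 nM, 8 points, 3-fold dilution) for 60 minutes at 37° C. They were then stimulated overnight at 37° C. with anti-CD3/CD28 antibody. IL-2 in the supernatant was quantified by immunoassay kit and plotted against log compound concentration.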

Sequence of DGKz (Q13574 whole entry): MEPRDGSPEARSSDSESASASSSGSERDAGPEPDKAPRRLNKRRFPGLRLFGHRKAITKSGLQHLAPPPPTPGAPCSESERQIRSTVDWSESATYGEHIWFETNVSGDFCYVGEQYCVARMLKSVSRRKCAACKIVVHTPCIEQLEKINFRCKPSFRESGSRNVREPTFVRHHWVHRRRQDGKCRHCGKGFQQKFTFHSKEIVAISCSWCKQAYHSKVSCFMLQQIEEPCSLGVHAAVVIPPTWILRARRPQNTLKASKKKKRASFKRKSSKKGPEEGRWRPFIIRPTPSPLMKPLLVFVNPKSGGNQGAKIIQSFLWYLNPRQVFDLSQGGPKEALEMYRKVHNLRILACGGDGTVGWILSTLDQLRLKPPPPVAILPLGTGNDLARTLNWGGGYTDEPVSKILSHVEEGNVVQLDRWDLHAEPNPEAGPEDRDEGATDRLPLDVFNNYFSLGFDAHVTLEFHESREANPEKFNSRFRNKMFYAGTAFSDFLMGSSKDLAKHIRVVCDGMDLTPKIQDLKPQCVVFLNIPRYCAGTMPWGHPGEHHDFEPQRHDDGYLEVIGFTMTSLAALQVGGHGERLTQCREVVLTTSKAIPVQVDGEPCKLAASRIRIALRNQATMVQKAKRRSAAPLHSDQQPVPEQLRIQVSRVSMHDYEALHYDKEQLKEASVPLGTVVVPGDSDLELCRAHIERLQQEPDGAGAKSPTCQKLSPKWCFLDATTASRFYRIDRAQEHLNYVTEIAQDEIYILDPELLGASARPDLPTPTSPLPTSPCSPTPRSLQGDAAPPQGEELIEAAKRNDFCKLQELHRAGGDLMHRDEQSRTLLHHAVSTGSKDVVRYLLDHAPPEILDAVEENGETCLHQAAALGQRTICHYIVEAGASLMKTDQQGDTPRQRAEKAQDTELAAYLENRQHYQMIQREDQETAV

Compound: CC[C@H]1CN([C@@H](CC)c2ccc(OC)cc2F)[C@H](CC)CN1c1nc2nncn2c2ccc(C#N)nc12 (stereo in doubt) [Compound 115]
- IC50 [1]: 8 nM
- IC50 [2]: 3 nM

Compound: CC[C@H]1CN([C@H](CC)c2ccc(OC)cc2F)[C@H](CC)CN1c1nc2nncn2c2ccc(C#N)nc12 (stereo in doubt) [Compound 116]
- IC50 [1]: 347 nM
- IC50 [2]: 14 nM

Compound: Cn1c(=O)nc(N2CCC3(CCN(c4ccc(OC(F)(F)F)cc4)C3)CC2)c2nc(C#N)ccc21 [Compound 8]
- IC50 [1]: 547 nM
- IC50 [2]: 579 nM

Compound: Cc1ccccc1-n1cc(C2CCN(c3nc(=O)n(C)c4ccc(C#N)nc34)CC2)cn1 [Compound 12]
- IC50 [1]: > 10000 nM
- IC50 [2]: 6600 nM

Compound: Cn1c(=O)c(C(N)=O)c(N2CCC3(CN(c4ccc(OC(F)(F)F)cc4)C3)C2)c2nc(C#N)ccc21 [Compound 15]
- IC50 [1]: > 10000 nM
- IC50 [2]: 19 nM

Compound: CC[C@H]1C[C@@H](Oc2ccc(OC(F)(F)F)cc2)CCN1c1nc(=O)n(C)c2ccc(C#N)nc12 [Compound 17]
- IC50 [1]: 212 nM
- IC50 [3]: 53 nM
- EC50 [4]: 401 nM

Compound: Cc1ccc2oc(C3CCN(c4nc(=O)n(C)c5ccc(C#N)nc45)CC3)nc2c1 [Compound 20]
- IC50 [1]: 1840 nM
- IC50 [2]: 1160 nM

Compound: Cc1ccc2oc(C3CCN(c4nc(=O)n(C)c5ccc6nncn6c45)CC3)nc2c1 [Compound 22]
- IC50 [1]: > 10000 nM
- IC50 [2]: 5 nM

Compound: CC[C@H]1CN([C@H](CC)c2ccc(C(F)(F)F)cc2)[C@H](CC)CN1c1nc2nncn2c2ccc(C#N)nc12 [Compound 35]
- IC50 [1]: 224 nM
- IC50 [2]: 16 nM

Compound: Cn1c(=O)nc(N2CCC3(CC2)COC(c2ccc(OC(F)(F)F)cc2)=N3)c2nc(Cl)ccc21 [Compound 37]
- IC50 [1]: 475 nM
- IC50 [2]: 17 nM

Compound: Cn1c(=O)nc(N2CCCc3c(C#CC4CC4)cccc32)c2nc(C#N)ccc21 [Compound 42]
- IC50 [1]: 311 nM
- IC50 [2]: 3 nM

Compound: CC[C@H]1CN([C@@H]2CCCCc3cc(C(F)(F)F)ccc32)[C@H](CC)CN1c1nc(=O)n(C)c2ccc(C#N)nc12 [Compound 45]
- IC50 [1]: 45 nM
- IC50 [3]: 245 nM
- EC50 [5]: 858 nM

Compound: CN(c1cccc(C#CC2CC2)c1)c1nc(=O)n(C)c2ccc(C#N)nc12 [Compound 46]
- IC50 [1]: 324 nM
- IC50 [2]: 5 nM

Compound: CC[C@@H]1CN(c2nc(=O)n(C)c3ccc(C#N)nc23)[C@@H](C)CN1C(c1ccc(S(F)(F)(F)(F)F)cc1)c1nc(C2CC2)no1 (stereo partly shown) [Compound 65]
- IC50 [1]: 59 nM
- IC50 [3]: 14 nM

Compound: CC[C@@H]1CN(c2nc(=O)n(C)c3ccc(C#N)nc23)[C@@H](C)CN1[C@H](c1ccc(F)cc1)c1ccc(SC(F)(F)F)cn1 [Compound 73]
- IC50 [1]: 58 nM
- IC50 [3]: 15 nM

Compound: CC[C@@H]1CN(c2nc3nncn3c3ccc(C#N)nc23)[C@@H](CC)CN1C(=O)c1ccc(C(F)(F)F)cc1 [Compound 84]
- IC50 [1]: 1160 nM
- IC50 [3]: 9 nM

Compound: CC[C@@H]1CN(c2nc3nncn3c3ccc(C#N)nc23)[C@@H](CC)CN1C(=O)Cc1ccc(C(F)(F)F)cc1 [Compound 85]
- IC50 [1]: 770 nM
- IC50 [3]: 18 nM

Compound: CC[C@H]1CN([C@H](CC)c2ccc(S(F)(F)(F)(F)F)cc2)[C@H](CC)CN1c1nc2nncn2c2ccc(C#N)nc12 [Compound 87]
- IC50 [1]: 93 nM
- IC50 [3]: 2 nM

Compound: CC[C@@H]1C[C@H](c2nc3cc(C)ccc3o2)CCN1c1nc(=O)n(C)c2cc(O[C@H]3CCOC3)c(Cl)cc12 [Compound 91]
- IC50 [1]: 6060 nM
- IC50 [3]: 29 nM

Compound: CC[C@@H]1C[C@H](c2nc3cc(C)ccc3o2)CCN1c1nc(=O)n(C)c2cc(O[C@@H]3CCOC3)c(Cl)cc12 [Compound 92]
- IC50 [1]: 6 nM
- IC50 [3]: 227 nM

Compound: CC[C@@H]1CN2c3c(c(=O)n(C)c4ccc(C#N)nc34)OC[C@@H]2CN1[C@@H](CC)c1ccc(SC(F)(F)F)cc1 [Compound 123]
- IC50 [1]: 798 nM
- IC50 [3]: 78 nM

Compound: CC[C@@H]1CN2c3c(c(=O)n(C)c4ccc(C#N)nc34)OC[C@@H]2CN1[C@H](CC)c1ccc(SC(F)(F)F)cc1 [Compound 124]
- IC50 [1]: 114 nM
- IC50 [3]: 6 nM

From patent US20250223301A1, “KINASE INHIBITORS, PREPARATION METHODS AND USES THEREOF” (InventisBio Co., Ltd., priority 2022, published 2025)
